Source: US10562909B2, “Fused quadracyclic compounds, compositions and uses thereof” (Tabomedex Biosciences, LLC, priority 2016, dated 2020)

Molecular target: MAPKAPK2 (Homo sapiens, UniProt P49137)
Experiment: MK2 Enzymatic Assay
Type: biochemical
Conditions: 0.5 nM MAPKAPK2, 3 μM ATP, 2 μM Ser/Thr4 peptide, 23° C., values given as concentration bins
How it was run: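 Percent phosphorylation was derived from coumarin and fluorescein emissions relative to 0% and 100% phospho-peptide controls, read after a 120 min development step. Reactions used 2× stocks of 1 nM kinase, 4 μM peptide and 6 μM ATP; enzyme and peptide sat 20 min before a 120 min ATP reaction.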

Chain of MAPKAPK2 (P49137 whole entry, species assumed): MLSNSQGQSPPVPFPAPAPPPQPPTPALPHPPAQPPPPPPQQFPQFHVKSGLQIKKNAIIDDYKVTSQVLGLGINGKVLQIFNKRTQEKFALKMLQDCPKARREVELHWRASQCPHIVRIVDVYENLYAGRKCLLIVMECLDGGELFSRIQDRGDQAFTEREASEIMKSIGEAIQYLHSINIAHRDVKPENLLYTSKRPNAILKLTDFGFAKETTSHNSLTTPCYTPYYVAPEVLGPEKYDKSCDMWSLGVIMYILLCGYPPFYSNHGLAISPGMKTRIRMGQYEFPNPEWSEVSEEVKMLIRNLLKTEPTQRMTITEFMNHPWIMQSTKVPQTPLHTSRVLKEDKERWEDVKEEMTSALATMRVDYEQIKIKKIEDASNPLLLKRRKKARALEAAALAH

Row | Compound | IC50
1 | CN1CC2(CCN(c3ccc4c(c3)Cn3cc(-c5ccc(F)cc5)cc3-c3nccn3-4)C2)C1 [Compound 344, 12-(4-fluorophenyl)-7-(2-methyl-2,6-diazaspiro[3.4]octan-6-yl)-9H-benzo[e]imidazo[2,1-c] pyrrolo[1,2-a][1,4]diazepine] | < 50 nM
2 | CNC[C@H]1CCN(c2ccc3c(c2)Cn2cc(-c4ccc(F)cc4)cc2-c2nccn2-3)C1 [Compound 348, (R)-1-(1-(12-(4-fluorophenyl)-9H-benzo[e]imidazo[2,1-c]pyrrolo[1,2-a][1,4]diazepin-7-yl)pyrrolidin-3-yl)-N-methylmethanamine] | < 50 nM
3 | C[C@H](CO)NC[C@@H]1CCN(c2ccc3c(c2)Cn2cc(-c4ccc(F)cc4)cc2-c2nccn2-3)C1 [Compound 354, (R)-2-((((S)-1-(12-(4-fluorophenyl)-9H-benzo[e]imidazo[2,1-c]pyrrolo[1,2-a][1,4]diazepin-7-yl)pyrrolidin-3-yl)methyl)amino)propan-1-ol] | < 50 nM
4 | C[C@H](CO)NC[C@H]1CCN(c2ccc3c(c2)Cn2cc(-c4ccc(F)cc4)cc2-c2nccn2-3)C1 [Compound 355, (R)-2-((((R)-1-(12-(4-fluorophenyl)-9H-benzo[e]imidazo[2,1-c]pyrrolo[1,2-a][1,4]diazepin-7-yl)pyrrolidin-3-yl)methyl)amino)propan-1-ol] | < 50 nM
5 | CC(C)[C@@H](CO)NC[C@H]1CCN(c2ccc3c(c2)Cn2cc(-c4ccc(F)cc4)cc2-c2nccn2-3)C1 [Compound 359, (S)-2-((((R)-1-(12-(4-fluorophenyl)-9H-benzo[e]imidazo[2,1-c]pyrrolo[1,2-a][1,4]diazepin-7-yl)pyrrolidin-3-yl)methyl)amino)-3-methylbutan-1-ol] | < 50 nM
6 | OC1CCN(C[C@@H]2CCN(c3ccc4c(c3)Cn3cc(-c5ccc(F)cc5)cc3-c3nccn3-4)C2)CC1 [Compound 361, (S)-1-((1-(12-(4-fluorophenyl)-9H-benzo[e]imidazo[2,1-c]pyrrolo[1,2-a][1,4]diazepin-7-yl)pyrrolidin-3-yl)methyl)piperidin-4-ol] | < 50 nM
7 | CNC[C@H]1CN(c2ccc3c(c2)Cn2cc(-c4ccc(F)cc4)cc2-c2nccn2-3)C[C@@H]1O [Compound 363, (3R,4S)-1-(12-(4-fluorophenyl)-9H-benzo[e]imidazo[2,1-c]pyrrolo[1,2-a][1,4]diazepin-7-yl)-4-((methylamino)methyl)pyrrolidin-3-ol] | < 50 nM
8 | CNC[C@@H]1CN(c2ccc3c(c2)Cn2cc(-c4ccc(F)cc4)cc2-c2nccn2-3)C[C@H]1O [Compound 364, (3S,4R)-1-(12-(4-fluorophenyl)-9H-benzo[e]imidazo[2,1-c]pyrrolo[1,2-a][1,4]diazepin-7-yl)-4-((methylamino)methyl)pyrrolidin-3-ol] | < 50 nM
9 | NC[C@H]1CN(c2ccc3c(c2)Cn2cc(-c4ccc(F)cc4)cc2-c2nccn2-3)C[C@@H]1O [Compound 365, (3R,4S)-4-(aminomethyl)-1-(12-(4-fluorophenyl)-9H-benzo[e]imidazo[2,1-c]pyrrolo[1,2-a] [1,4]diazepin-7-yl)pyrrolidin-3-ol] | 50 to 100 nM
10 | NC[C@@H]1CN(c2ccc3c(c2)Cn2cc(-c4ccc(F)cc4)cc2-c2nccn2-3)C[C@H]1O [Compound 366, (3S,4R)-4-(aminomethyl)-1-(12-(4-fluorophenyl)-9H-benzo[e]imidazo[2,1-c]pyrrolo[1,2-a] [1,4]diazepin-7-yl)pyrrolidin-3-ol] | < 50 nM
11 | CCN1CC2(CCN(c3ccc4c(c3)Cn3cc(-c5ccc(F)cc5)cc3-c3nccn3-4)C2)C1 [Compound 367, 7-(2-ethyl-2,6-diazaspiro[3.4]octan-6-yl)-12-(4-fluorophenyl)-9H-benzo[e]imidazo[2,1-c] pyrrolo[1,2-a][1,4]diazepine] | < 50 nM
12 | CC(C)N1CC2(CCN(c3ccc4c(c3)Cn3cc(-c5ccc(F)cc5)cc3-c3nccn3-4)C2)C1 [Compound 368, 12-(4-fluorophenyl)-7-(2-isopropyl-2,6-diazaspiro[3.4]octan-6-yl)-9H-benzo[e]imidazo[2,1-c]pyrrolo[1,2-a][1,4]diazepine] | < 50 nM
13 | OCCN1CC2(CCN(c3ccc4c(c3)Cn3cc(-c5ccc(F)cc5)cc3-c3nccn3-4)C2)C1 [Compound 369, 2-(6-(12-(4-fluorophenyl)-9H-benzo[e]imidazo[2,1-c]pyrrolo[1,2-a][1,4]diazepin-7-yl)-2,6-diazaspiro[3.4]octan-2-yl)ethanol] | < 50 nM
14 | C[C@H](CO)N1CC2(CCN(c3ccc4c(c3)Cn3cc(-c5ccc(F)cc5)cc3-c3nccn3-4)C2)C1 [Compound 370, (R)-2-(6-(12-(4-fluorophenyl)-9H-benzo[e]imidazo[2,1-c]pyrrolo[1,2-a][1,4]diazepin-7-yl)-2,6-diazaspiro[3.4]octan-2-yl)propan-1-ol] | < 50 nM
15 | C[C@@H](CO)N1CC2(CCN(c3ccc4c(c3)Cn3cc(-c5ccc(F)cc5)cc3-c3nccn3-4)C2)C1 [Compound 371, (S)-2-(6-(12-(4-fluorophenyl)-9H-benzo[e]imidazo[2,1-c]pyrrolo[1,2-a][1,4]diazepin-7-yl)-2,6-diazaspiro[3.4]octan-2-yl)propan-1-ol] | < 50 nM

Second part, the molecule after the results:

Row | IC50 | Compound
16 | < 50 nM | CNCC1CCN(c2ccc3c(c2)Cn2cc(-c4ccc(F)cc4)cc2-c2nccn2-3)C1 (centres unmarked) [Compound 342, 1-(1-(12-(4-fluorophenyl)-9H-benzo[e]imidazo[2,1-c]pyrrolo[1,2-a][1,4]diazepin-7-yl)pyrrolidin-3-yl)-N-methylmethanamine]
17 | < 50 nM | CN(C)C[C@@H]1CCN(c2ccc3c(c2)Cn2cc(-c4ccc(F)cc4)cc2-c2nccn2-3)C1 [Compound 345, (S)-1-(1-(12-(4-fluorophenyl)-9H-benzo[e]imidazo[2,1-c]pyrrolo[1,2-a][1,4]diazepin-7-yl)pyrrolidin-3-yl)-N,N-dimethylmethanamine]
18 | < 50 nM | CN(C)C[C@H]1CCN(c2ccc3c(c2)Cn2cc(-c4ccc(F)cc4)cc2-c2nccn2-3)C1 [Compound 346, (R)-1-(1-(12-(4-fluorophenyl)-9H-benzo[e]imidazo[2,1-c]pyrrolo[1,2-a][1,4]diazepin-7-yl)pyrrolidin-3-yl)-N,N-dimethylmethanamine]
19 | < 50 nM | CNC[C@@H]1CCN(c2ccc3c(c2)Cn2cc(-c4ccc(F)cc4)cc2-c2nccn2-3)C1 [Compound 347, (S)-1-(1-(12-(4-fluorophenyl)-9H-benzo[e]imidazo[2,1-c]pyrrolo[1,2-a][1,4]diazepin-7-yl)pyrrolidin-3-yl)-N-methylmethanamine]
20 | < 50 nM | CN(C)C[C@H]1CN(c2ccc3c(c2)Cn2cc(-c4ccc(F)cc4)cc2-c2nccn2-3)C[C@H]1O [Compound 349, (3S,4S)-4-((dimethylamino)methyl)-1-(12-(4-fluorophenyl)-9H-benzo[e]imidazo[2,1-c]pyrrolo[1,2-a][1,4]diazepin-7-yl)pyrrolidin-3-ol]
21 | < 50 nM | CN(C)C[C@@H]1CN(c2ccc3c(c2)Cn2cc(-c4ccc(F)cc4)cc2-c2nccn2-3)C[C@@H]1O [Compound 350, (3R,4R)-4-((dimethylamino)methyl)-1-(12-(4-fluorophenyl)-9H-benzo[e]imidazo[2,1-c]pyrrolo[1,2-a][1,4]diazepin-7-yl)pyrrolidin-3-ol]
22 | < 50 nM | CN(C)[C@@H]1CN(c2ccc3c(c2)Cn2cc(-c4ccc(F)cc4)cc2-c2nccn2-3)C[C@H]1O [Compound 351, (3R,4R)-4-(dimethylamino)-1-(12-(4-fluorophenyl)-9H-benzo[e]imidazo[2,1-c]pyrrolo[1,2-a] [1,4]diazepin-7-yl)pyrrolidin-3-ol]
23 | < 50 nM | CN(C)[C@H]1CN(c2ccc3c(c2)Cn2cc(-c4ccc(F)cc4)cc2-c2nccn2-3)C[C@@H]1O [Compound 352, (3S,4S)-4-(dimethylamino)-1-(12-(4-fluorophenyl)-9H-benzo[e]imidazo[2,1-c]pyrrolo[1,2-a] [1,4]diazepin-7-yl)pyrrolidin-3-ol]
24 | < 50 nM | CN(C)[C@@H]1CN(c2ccc3c(c2)Cn2cc(-c4ccc(F)cc4)cc2-c2nccn2-3)C[C@@H]1O [Compound 353, (3S,4R)-4-(dimethylamino)-1-(12-(4-fluorophenyl)-9H-benzo[e]imidazo[2,1-c]pyrrolo[1,2-a] [1,4]diazepin-7-yl)pyrrolidin-3-ol]
25 | < 50 nM | CN(C)C[C@H]1CN(c2ccc3c(c2)Cn2cc(-c4ccc(F)cc4)cc2-c2nccn2-3)C[C@@H]1O [Compound 356, (3R,4S)-4-((dimethylamino)methyl)-1-(12-(4-fluorophenyl)-9H-benzo[e]imidazo[2,1-c]pyrrolo[1,2-a][1,4]diazepin-7-yl)pyrrolidin-3-ol]
26 | < 50 nM | CN(C)C[C@@H]1CN(c2ccc3c(c2)Cn2cc(-c4ccc(F)cc4)cc2-c2nccn2-3)C[C@H]1O [Compound 357, (3S,4R)-4-((dimethylamino)methyl)-1-(12-(4-fluorophenyl)-9H-benzo[e]imidazo[2,1-c]pyrrolo[1,2-a][1,4]diazepin-7-yl)pyrrolidin-3-ol]
27 | < 50 nM | CC(C)[C@H](CO)NC[C@H]1CCN(c2ccc3c(c2)Cn2cc(-c4ccc(F)cc4)cc2-c2nccn2-3)C1 [Compound 358, (R)-2-((((R)-1-(12-(4-fluorophenyl)-9H-benzo[e]imidazo[2,1-c]pyrrolo[1,2-a][1,4]diazepin-7-yl)pyrrolidin-3-yl)methyl)amino)-3-methylbutan-1-ol]
28 | < 50 nM | CC(C)(CO)NC[C@@H]1CCN(c2ccc3c(c2)Cn2cc(-c4ccc(F)cc4)cc2-c2nccn2-3)C1 [Compound 360, (S)-2-(((1-(12-(4-fluorophenyl)-9H-benzo[e]imidazo[2,1-c]pyrrolo[1,2-a][1,4]diazepin-7-yl)pyrrolidin-3-yl)methyl)amino)-2-methylpropan-1-ol]
29 | < 50 nM | OC1CCN(C[C@H]2CCN(c3ccc4c(c3)Cn3cc(-c5ccc(F)cc5)cc3-c3nccn3-4)C2)CC1 [Compound 362, (R)-1-((1-(12-(4-fluorophenyl)-9H-benzo[e]imidazo[2,1-c]pyrrolo[1,2-a][1,4]diazepin-7-yl)pyrrolidin-3-yl)methyl)piperidin-4-ol]
